The nature of this data set: Plasma lovastatin levels in rats after a single oral or dermal dose, by HMG-CoA reductase inhibition assay. The data set is classed as in vivo, rat. The settings on record: intact rats, single dose, 1, 3, 6 and 24 hours; dermal in 100% DMSO vs oral gavage in 0.5% methylcellulose. The procedure: For oral administration, a suspension of lovastatin was prepared in 0.5% methylcellulose and administered by gavage.

1 compound from patent US20110184057A1, “PARENTERAL TREATMENT WITH STATINS” (priority 2008, published 2011) can be followed below.

Each structure is given as a SMILES string.

In the case of `CC[C@H](C)C(=O)O[C@H]1C[C@@H](C)C=C2C=C[C@H](C)[C@H](CC[C@@H]3C[C@@H](O)CC(=O)O3)[C@H]21` [lovastatin], the “plasma concentrations of lovastatin, dermal versus oral” value is “greater, less variable and more prolonged than when the drug was given orally”.
